The text below walks through data of US20150344540A1, “NOVEL GLP-1 RECEPTOR AGONISTS WITH CHOLESTEROL EFFLUX ACTIVITY” (NOVO NORDISK A/S, priority 2012, published 2015).

Data set [1] can be described thus: Pharmacokinetics in mini-pigs after i.v. administration. To be noted: female, Göttingen, minipig, iv, 5 nmol/kg. In a few lines: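 Female Göttingen mini-pigs (15-20 kg, N=3) received 5 nmol/kg i.v. via central venous catheter. Plasma levels of N-terminally intact peptide measured by LOCI immunoassay with N-terminal and mid-/C-terminal antibodies; non-compartmental analysis of individual profiles.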

The test system of data set [2] is Mouse monocyte/macrophage cell line, RAW 264.7. Briefly: Cholesterol efflux assay (3H-cholesterol, macrophage cell line). In kind it is cell-based. To be noted: RAW 264.7, 4 hrs incubation, 0.1% human serum albumin; for 4 h Cholesterol Efflux Emax: ABCA1-mediated efflux.
The target of another data set is human GLP-1 receptor (Homo sapiens, UniProt P43220). Kind of data set: Functional GLP-1 receptor assay, in vitro potency (CRE luciferase; whole cells). To be noted: BHK cells expressing human GLP-1 receptor. In kind it is cell-based.
Where [3] appears, read: plasma, T1/2 Mean Value, Göttingen mini-pigs, N=3.
Setting [4] is: 0% HSA, read-out: GLP1R CRE luc 0% HSA EC50 Mean Value.
Setting [5] is: GLP1R CRE luc 1% HSA EC50 Mean Value, 1% HSA.

Read-outs that look alike come from different tables or passages of the source. Where a SMILES comes first, the peptide text is derived from it. [ ]: non-standard residue; d: D form. Aib = CC(C)(N)C(=O)O

Chain of human GLP-1 receptor (P43220 24-463): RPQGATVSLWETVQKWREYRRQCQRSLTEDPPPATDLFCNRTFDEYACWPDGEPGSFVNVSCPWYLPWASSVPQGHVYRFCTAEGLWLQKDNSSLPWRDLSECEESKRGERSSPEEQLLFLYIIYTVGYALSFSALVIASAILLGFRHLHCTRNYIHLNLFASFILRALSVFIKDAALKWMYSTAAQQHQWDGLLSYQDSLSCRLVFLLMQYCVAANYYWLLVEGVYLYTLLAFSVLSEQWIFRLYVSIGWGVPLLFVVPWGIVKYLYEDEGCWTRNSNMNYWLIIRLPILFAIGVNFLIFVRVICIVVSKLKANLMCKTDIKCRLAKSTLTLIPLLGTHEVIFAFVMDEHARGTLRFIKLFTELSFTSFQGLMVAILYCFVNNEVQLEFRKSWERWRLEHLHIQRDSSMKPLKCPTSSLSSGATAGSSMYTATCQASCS

Usually Vd stands for the apparent volume that relates the amount in the body to the concentration in plasma or blood. High values mean extensive tissue distribution, low ones confinement near the circulation. By clearance is commonly meant the volume of plasma or blood freed of the substance per unit of time. A higher clearance goes with efficient removal. One may read the half-life as the time in which the quantity being followed falls by half. A higher half-life goes with slow loss. What is called EC50 is the concentration that produces a half-maximal response. In data set [1] (plasma), `CC[C@H](C)[C@H](NC(=O)[C@H](Cc1ccccc1)NC(=O)[C@H](CCC(=O)O)NC(=O)[C@H](CCCCN)NC(=O)[C@H](C)NC(=O)[C@H](C)NC(=O)[C@H](CCC(N)=O)NC(=O)CNC(=O)[C@H](CCC(=O)O)NC(=O)[C@H](CC(C)C)NC(=O)[C@H](Cc1ccc(O)cc1)NC(=O)[C@H](CO)NC(=O)[C@H](CO)NC(=O)[C@@H](NC(=O)[C@H](CC(=O)O)NC(=O)[C@H](CO)NC(=O)[C@@H](NC(=O)[C@H](Cc1ccccc1)NC(=O)[C@@H](NC(=O)CNC(=O)[C@H](CCC(=O)O)NC(=O)C(C)(C)NC(=O)[C@@H](N)Cc1c[nH]cn1)[C@@H](C)O)[C@@H](C)O)C(C)C)C(=O)N[C@@H](C)C(=O)N[C@@H](Cc1c[nH]c2ccccc12)C(=O)N[C@@H](CC(C)C)C(=O)N[C@H](C(=O)N[C@@H](CCCCN)C(=O)N[C@@H](CCCCN)C(=O)NC(C)(C)C(=O)NCC(=O)N[C@@H](CCC(=O)O)C(=O)N[C@@H](Cc1ccccc1)C(=O)N[C@@H](CC(C)C)C(N)=O)C(C)C` [Compound 48] gave a C0 of 85.5 nM, a Vd of 0.0743 L/kg and a clearance of 6.3 mL/h/kg. In data set [1] (setting [3]), this compound gave a half-life of 8.3 h. The “4 h Cholesterol Efflux Emax” value in data set [2] turned out to be 71%. Further, on human GLP-1 receptor (setting [4]), the EC50 turned out to be 0.045 nM. This compound returned an EC50 at human GLP-1 receptor (setting [5]) of 0.015 nM.

Consider `CC[C@H](C)[C@H](NC(=O)[C@H](Cc1ccccc1)NC(=O)[C@H](CCC(=O)O)NC(=O)[C@H](CCCCN)NC(=O)[C@@H](NC(=O)[C@H](C)NC(=O)[C@H](CCC(=O)O)NC(=O)CNC(=O)[C@H](CCC(=O)O)NC(=O)[C@H](CC(C)C)NC(=O)[C@H](Cc1ccc(O)cc1)NC(=O)[C@H](CO)NC(=O)[C@H](CO)NC(=O)[C@@H](NC(=O)[C@H](CC(=O)O)NC(=O)[C@H](CO)NC(=O)[C@@H](NC(=O)[C@H](Cc1ccccc1)NC(=O)[C@@H](NC(=O)CNC(=O)[C@H](CCC(=O)O)NC(=O)C(C)(C)NC(=O)[C@@H](N)Cc1c[nH]cn1)[C@@H](C)O)[C@@H](C)O)C(C)C)C(C)C)C(=O)N[C@@H](C)C(=O)N[C@@H](Cc1c[nH]c2ccccc12)C(=O)N[C@@H](CC(C)C)C(=O)N[C@H](C(=O)N[C@@H](CCC(=O)O)C(=O)N[C@@H](CCCCN)C(=O)NC(C)(C)C(=O)NCC(=O)N[C@@H](CCC(=O)O)C(=O)N[C@@H](Cc1ccccc1)C(=O)N[C@@H](CC(C)C)C(N)=O)C(C)C` [Compound 32] (H-H[Aib]EGTFTSDVSSYLEGEAVKEFIAWLVEK[Aib]GEFL-NH2), for which, in data set [1] (plasma), the C0 amounted to 108 nM, the Vd came to 0.0769 L/kg and the clearance was 1.04 mL/h/kg. For the same compound, the half-life in data set [1] (setting [3]) is 51.3 h. In addition, the “4 h Cholesterol Efflux Emax” value in data set [2] is 85%. In addition, the EC50 at human GLP-1 receptor (setting [4]) was 0.039 nM. For the same compound, on human GLP-1 receptor (setting [5]), a half-maximal response (EC50) required 0.013 nM.

In data set [1] (plasma), `CC[C@H](C)[C@H](NC(=O)[C@H](Cc1ccccc1)NC(=O)[C@H](CCC(=O)O)NC(=O)[C@H](CCCCN)NC(=O)[C@H](C)NC(=O)[C@H](C)NC(=O)[C@H](CCC(N)=O)NC(=O)CNC(=O)[C@H](CCC(=O)O)NC(=O)[C@H](CC(C)C)NC(=O)[C@H](Cc1ccc(O)cc1)NC(=O)[C@H](CO)NC(=O)[C@H](CO)NC(=O)[C@@H](NC(=O)[C@H](CC(=O)O)NC(=O)[C@H](CO)NC(=O)[C@@H](NC(=O)[C@H](Cc1ccccc1)NC(=O)[C@@H](NC(=O)CNC(=O)[C@H](CCC(=O)O)NC(=O)C(C)(C)NC(=O)[C@@H](N)Cc1c[nH]cn1)[C@@H](C)O)[C@@H](C)O)C(C)C)C(=O)N[C@@H](C)C(=O)N[C@@H](Cc1c[nH]c2ccccc12)C(=O)N[C@@H](CC(C)C)C(=O)N[C@H](C(=O)N[C@@H](CCC(=O)O)C(=O)N[C@@H](CCCCN)C(=O)NC(C)(C)C(=O)N[C@@H](CCCCN)C(=O)N[C@@H](CCC(=O)O)C(=O)N[C@@H](Cc1ccccc1)C(=O)N[C@@H](CC(C)C)C(N)=O)C(C)C` [Compound 45, [Aib8,Glu34,Lys35,Aib36,Lys37]-GLP-1-(7-37)-peptidyl-Glu-Phe-Leu amide] gave a C0 of 147 nM, a Vd of 0.154 L/kg and a clearance of 2.39 mL/h/kg. The compound also showed a half-life in data set [1] (setting [3]) of 44.9 h. Moreover, the “4 h Cholesterol Efflux Emax” value in data set [2] stood at 97%. For the same compound, the EC50 at human GLP-1 receptor (setting [4]) was 0.108 nM. Besides, the EC50 at human GLP-1 receptor (setting [5]) is 0.042 nM.

In data set [1] (plasma), `CC[C@H](C)[C@H](NC(=O)[C@H](Cc1ccccc1)NC(=O)[C@H](CCC(=O)O)NC(=O)[C@H](CCCCN)NC(=O)[C@H](C)NC(=O)[C@H](C)NC(=O)[C@H](CCC(=O)O)NC(=O)CNC(=O)[C@H](CCC(=O)O)NC(=O)[C@H](CC(C)C)NC(=O)[C@H](Cc1ccc(O)cc1)NC(=O)[C@H](CO)NC(=O)[C@H](CO)NC(=O)[C@@H](NC(=O)[C@H](CC(=O)O)NC(=O)[C@H](CO)NC(=O)[C@@H](NC(=O)[C@H](Cc1ccccc1)NC(=O)[C@@H](NC(=O)CNC(=O)[C@H](CCC(=O)O)NC(=O)C(C)(C)NC(=O)[C@@H](N)Cc1c[nH]cn1)[C@@H](C)O)[C@@H](C)O)C(C)C)C(=O)N[C@@H](C)C(=O)N[C@@H](Cc1c[nH]c2ccccc12)C(=O)N[C@@H](CC(C)C)C(=O)N[C@H](C(=O)N[C@@H](CCC(=O)O)C(=O)N[C@@H](CCCCN)C(=O)NC(C)(C)C(=O)N[C@@H](CCCCN)C(=O)N[C@@H](CCC(=O)O)C(=O)N[C@@H](Cc1ccccc1)C(=O)N[C@@H](CC(C)C)C(N)=O)C(C)C` [Compound 8, [Aib8,Glu23,Glu34,Lys35,Aib36,Lys37]-GLP-1-(7-37)-peptidyl-Glu-Phe-Leu amide] (H-H[Aib]EGTFTSDVSSYLEGEAAKEFIAWLVEK[Aib]KEFL-NH2) showed a C0 of 79.7 nM, a Vd of 0.152 L/kg and a clearance of 3.09 mL/h/kg. Moreover, the half-life in data set [1] (plasma, T1/2, mini-pigs) was 32.8 h. The half-life in data set [1] (setting [3]) was 32.9 h. The “4 h Cholesterol Efflux Emax” value in data set [2] stood at 100%. At human GLP-1 receptor (setting [4]), the 50% effective concentration (EC50) was determined as 0.163 nM.

In data set [1] (in vivo), `CC(C)C[C@H](NC(=O)[C@H](Cc1ccccc1)NC(=O)[C@H](CCC(=O)O)NC(=O)[C@H](CCCCN)NC(=O)C(C)(C)NC(=O)[C@H](CCCCN)NC(=O)[C@H](CCC(=O)O)NC(=O)[C@H](CC(C)C)NC(=O)[C@H](CC(C)C)NC(=O)[C@H](Cc1c[nH]c2ccccc12)NC(=O)[C@H](CCC(N)=O)NC(=O)[C@@H](NC(=O)[C@H](Cc1ccccc1)NC(=O)[C@H](CCC(=O)O)NC(=O)[C@H](CCCNC(=N)N)NC(=O)[C@H](C)NC(=O)[C@H](C)NC(=O)[C@H](CCCCN)NC(=O)[C@H](CO)NC(=O)[C@H](CC(=O)O)NC(=O)[C@H](CC(C)C)NC(=O)[C@H](Cc1ccc(O)cc1)NC(=O)[C@H](CCCCN)NC(=O)[C@H](CO)NC(=O)[C@H](Cc1ccc(O)cc1)NC(=O)[C@H](CC(=O)O)NC(=O)[C@H](CO)NC(=O)[C@@H](NC(=O)[C@H](Cc1ccccc1)NC(=O)[C@@H](NC(=O)CNC(=O)[C@H](CCC(N)=O)NC(=O)C(C)(C)NC(=O)[C@@H](N)Cc1c[nH]cn1)[C@@H](C)O)[C@@H](C)O)C(C)C)C(N)=O` [Compound 26] (H-H[Aib]QGTFTSDYSKYLDSKAAREFVQWLLEK[Aib]KEFL-NH2) gave a C0 of 123 nM, a Vd of 0.0549 L/kg, a clearance of 5.21 mL/h/kg and a half-life of 7.3 h. In data set [2], the “4 h Cholesterol Efflux Emax” value is 87%. The EC50 in data set [2] (read-out: 4 h Cholesterol Efflux EC50, ABCA1-mediated efflux (CPT-cAMP induced minus non-induced)) was found to be 200 nM. Moreover, at human GLP-1 receptor (GLP1R CRE luc 0% HSA EC50 Mean Value, 0% HSA), the midpoint of the response, the EC50, lay at 0.393 nM. Also, the EC50 on human GLP-1 receptor (setting [5]) was found to be 0.153 nM.

In data set [1] (plasma), `CC[C@H](C)[C@H](NC(=O)[C@H](Cc1ccccc1)NC(=O)[C@H](CCC(=O)O)NC(=O)[C@H](CCCCN)NC(=O)[C@@H](NC(=O)[C@H](C)NC(=O)[C@H](CCC(=O)O)NC(=O)CNC(=O)[C@H](CCC(=O)O)NC(=O)[C@H](CC(C)C)NC(=O)[C@H](Cc1ccc(O)cc1)NC(=O)[C@H](CO)NC(=O)[C@H](CO)NC(=O)[C@@H](NC(=O)[C@H](CC(=O)O)NC(=O)[C@H](CO)NC(=O)[C@@H](NC(=O)[C@H](Cc1ccccc1)NC(=O)[C@@H](NC(=O)CNC(=O)[C@H](CCC(=O)O)NC(=O)C(C)(C)NC(=O)[C@@H](N)Cc1c[nH]cn1)[C@@H](C)O)[C@@H](C)O)C(C)C)C(C)C)C(=O)N[C@@H](C)C(=O)N[C@@H](Cc1c[nH]c2ccccc12)C(=O)N[C@@H](CC(C)C)C(=O)N[C@H](C(=O)N[C@@H](CCC(=O)O)C(=O)N[C@@H](CCCCN)C(=O)NC(C)(C)C(=O)N[C@@H](CCCCN)C(N)=O)C(C)C` [Compound 11, [Aib8,Glu23,Val25,Glu34,Lys35,Aib36,Lys37]-GLP-1-(7-37)-peptide amide] (H-H[Aib]EGTFTSDVSSYLEGEAVKEFIAWLVEK[Aib]K-NH2) showed a C0 of 115 nM, a Vd of 0.0613 L/kg and a clearance of 54.9 mL/h/kg. In data set [1] (setting [3]), this compound gave a half-life of 0.8 h. Besides, in data set [2], the “4 h Cholesterol Efflux Emax” value was 135%. On human GLP-1 receptor (setting [4]), the EC50 turned out to be 0.015 nM. On human GLP-1 receptor (setting [5]), a half-maximal response (EC50) required 0.004 nM.
